Reference: patent US4937239A, “Azabicycloalkane oxime & azabicycloalkene oxime muscarinic agents” (Warner-Lambert Company, priority 1989, dated 1990)
pIC50: −log10 of the molar value.

Legend:
[1] = biological target: central muscarinic binding site; experiment: RCMD screening assay: inhibition of radio-labeled cis-methyldioxolane (agonist) binding, rat cerebral cortex tissue; settings: R3 is hydrogen, double bond: No; for pIC50: rat cerebral cortex; for % Inhib. RCMD: @ 10^-7 M
Procedure: (§1) The biological activity of compounds of the present invention was evaluated using a number of tests. The activity of compounds of this invention as central muscarinic binding site agonists and antagonists was measured. In the RQNB screening assay, which is described more fully by Mark Watson, et al, J. Pharmocol. Exp. Ther., 237 (2): 411 (1986), rat cerebral cortex tissue was treated with radio-labeled quinuclidinyl benzilate, a known muscarinic binding site antagonist. The % inhibition concentration of test compound required to inhibit 50% of the binding of this muscarinic antagonist was then determined.
Similarly, in the RCMD screening assay, described more fully by T. W. Vickeroy, et al, J. Pharmacol. Exp. Ther., 229 (3): 747 (1984), rat cerebral cortex tissue was treated with radio-labeled cis-methyldioxolane,a known muscarinic binding site agonist. The concentrations of test compounds required to inhibit 50% of the binding of this muscarinic agonist were then determined.

[2] = biological target: central muscarinic binding site; experiment: RQNB screening assay: inhibition of radio-labeled quinuclidinyl benzilate (antagonist) binding, rat cerebral cortex tissue; settings: R3 is hydrogen, double bond: No; for pIC50: rat cerebral cortex; for % Inhib. RQNB: @ 10^-6 M
Procedure: as §1

[3] = system: patients clinically diagnosed as having presenile primary degenerative dementia; settings: cited from earlier work
laboratory rats = experiment: SIS, scopolamine induced swimming test; type: in vivo, rat; settings: for reversal of scopolamine-induced swimming hyperactivity: rats given scopolamine
Procedure: In a second screening assay, designated SIS, the scopolamine induced swimming test, the ability of representative compounds of the present invention to reverse the hyperactive swimming behavior of laboratory rats given scopolamine was assessed. In this test, untreated rats will generally swim distances between 20 to 30 meters during a five minute test period. […] The effect of scopolamine is centrally mediated; the ability of a test compound to reverse the hyperactive swimming behavior induced by scopolamine is thus a measure of the central cholinergic activity of the compound.

[4] = in vivo; cited from earlier work
[5] = system: Aged humans and nonhuman primates; settings: aged humans and nonhuman primates with decreased cognition; cited from earlier work

With C#CCON=CC1CN2CCC1CC2 (stereo not drawn) [R1 = Hydrogen, R2 = 2-Propynyl, 1-Azabicyclo[2.2.2]octane-3-carboxaldehyde, O-2-propynyloxime] the pIC50 [1] was 7.57 and the pIC50 [2] was 6.46.

Work on C=CCON=CC1CN2CCC1CC2 (stereo not drawn) [R1 = Hydrogen, R2 = Allyl, 1-Azabicyclo[2.2.2]octane-3-carboxaldehyde, O-2-propenyloxime] yielded a pIC50 [1] of 6.93 and a pIC50 [2] of 6.84.

For COC(=O)C1=CCCN(C)C1 [arecoline, methyl ester of 1,2,5,6-tetrahydro-1-methyl-3-pyridinecarboxylic acid], the “test of picture recognition” value ([3]; double blind study) is listed as “Significant improvement”, the “amelioration of symptoms of cognitive disorders” value ([3]; patients with presenile primary degenerative dementia) is listed as “effective in ameliorating some of the symptoms of cognitive disorders” and the “reversal of scopolamine-induced swimming hyperactivity” value (laboratory rats) is listed as “can be reversed”.

With CN1[C@@H]2C[C@@H](OC(=O)[C@H](CO)c3ccccc3)C[C@H]1[C@@H]1O[C@@H]12 [scopolamine] the “increase of swimming distance above baseline values” (laboratory rats; scopolamine 0.1 mg/kg, five minute test period) was 75-125%.

With CON=C(C)C1CN2CCC1CC2 (stereo not drawn) [R1 = Methyl, R2 = Methyl, Ethanone,1-(1-Azabicyclo[2.2.2]oct-3-yl)-, O-methyloxime] the “% Inhib. RCMD” value [1] was 90% and the “% Inhib. RQNB” value [2] was 54%.

For Nc1ccncc1N [3,4-diaminopyridine], the age-related cognitive deficits [4] is listed as “ameliorate age-related cognitive deficits”.

For CON=CC1CN2CCC1CC2 (stereo not drawn) [R1 = Hydrogen, R2 = Methyl, 1-Azabicyclo[2.2.2]octane-3-carboxaldehyde, O-methyloxime], the pIC50 [1] was 7.93, the pIC50 [2] was 5.86 and the ED50 (laboratory rats; Rattus norvegicus, PO, laboratory rats, read-out: ED50 required to demonstrate reversal of the scopolamine-induced hyperactive swimming activity) was 1.8 mg/kg.

For C#CCON=C(C)C1CN2CCC1CC2 (stereo not drawn) [R1 = Methyl, R2 = 2-Propynyl, Ethanone,1-(1-Azabicyclo[2.2.2]oct-3-yl)-, O-2-propynyloxime], the “% Inhib. RCMD” value [1] was 78% and the “% Inhib. RQNB” value [2] was 81%.

For CNC(=O)Oc1ccc2c(c1)[C@]1(C)CCN(C)[C@@H]1N2C [physostigmine], the “reversal of scopolamine-induced swimming hyperactivity” value (laboratory rats) is given as “can be reversed” and the memory [5] is given as “improved memory”.
